Data: patent publication US20100048462A1, “TRUNCATED PTH PEPTIDES WITH A CYCLIC CONFORMATION” (Zealand Pharma A/S, priority 2006, published 2010)
Bridge positions count the residues as written; N and C are the ends. Square brackets hold non-standard residues; d marks the D form. Peptide text beside a SMILES is read from it. I, II: the chains in the order shown. hArg = N=C(N)NCCCC[C@H](N)C(=O)O; Ac5c = NC1(C(=O)O)CCCC1; Aib = CC(C)(N)C(=O)O

Assays:
[1] = target: T1, PTH receptor 1 (Mus musculus, UniProt P41593); test: MC3T3-E1 cAMP efficacy assay; assay type: cell-based, murine; conditions: MC3T3-E1 cells
T1 construct: host or cells: MC3T3-E1 subclone 4
T1 sequence (P41593 27-591): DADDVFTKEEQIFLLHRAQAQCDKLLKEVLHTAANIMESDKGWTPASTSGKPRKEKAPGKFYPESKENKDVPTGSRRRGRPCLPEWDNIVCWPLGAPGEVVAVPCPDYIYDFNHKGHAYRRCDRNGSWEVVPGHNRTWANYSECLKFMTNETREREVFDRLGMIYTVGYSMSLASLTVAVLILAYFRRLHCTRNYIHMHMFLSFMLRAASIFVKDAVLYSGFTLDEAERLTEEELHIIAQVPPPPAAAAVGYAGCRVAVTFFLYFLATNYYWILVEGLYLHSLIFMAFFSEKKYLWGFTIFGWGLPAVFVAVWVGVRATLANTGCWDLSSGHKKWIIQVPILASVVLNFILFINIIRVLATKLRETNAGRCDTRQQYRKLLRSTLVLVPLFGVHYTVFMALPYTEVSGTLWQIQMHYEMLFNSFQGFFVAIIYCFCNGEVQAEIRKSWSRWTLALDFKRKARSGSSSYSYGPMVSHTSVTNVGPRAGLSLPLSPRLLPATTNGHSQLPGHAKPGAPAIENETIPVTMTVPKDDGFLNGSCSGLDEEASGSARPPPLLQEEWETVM
Method: MC3T3-E1 cells were seeded at 10,000 cells/well in 96-microtiter plates and grown overnight before the efficacy assays. On the day of analysis the growth medium was carefully removed by suction. Cells were washed once with 200 μl TB/0.1% […]. The buffer was replaced with 100 μl reaction mixture (±test peptide, +100 μM IBMX) and incubated at 37° C. for 13 min. The reaction was stopped by addition of 25 μl of ice-cold 0.5 M HCl. Cells were in the following incubated on ice for 60 min. 75 μl acetate-buffer were added to each well in a 96-well cAMP FlashPlate. […] FlashPlates were incubated overnight at 4° C., emptied by suction and counted in a TopCounter.
Determinations were performed in triplicates at all doses. Standards were included as single determinations, duplicates or triplicates in each experiment, preferentially on each plate.
Efficacy was evaluated in the concentration range from […].
Concentration-dependent cAMP responses were imported into GraphPad Prism vers. 4, transformed and plotted. Curves were fitted with a function for sigmoidal dose response curve non-linear fit Y=Bottom+(Top-Bottom)/(1+10̂((LogEC50-X))) where X is the logarithm of concentration and Y is the response. Y starts at Bottom and goes to Top with a sigmoid shape. pEC50 and the maximally inducible concentration of cAMP were evaluated. Overall statistical differences were analyzed using one-way ANOVA. Post-hoc comparisons were made by the use of Fisher's Least Significance Test. Results were considered significant, when p was lower than 0.05.

[2] = target: T2, Saos-2 PTH1R (Homo sapiens, UniProt Q03431); test: cAMP-efficacy assay in Saos-2 cells; assay type: cell-based; conditions: for Emax ± SEM: relative effect to the control (SEQ ID NO: 32)
T2 construct: endogenous in cells; host or cells: Saos-2
T2 sequence (Q03431 27-593): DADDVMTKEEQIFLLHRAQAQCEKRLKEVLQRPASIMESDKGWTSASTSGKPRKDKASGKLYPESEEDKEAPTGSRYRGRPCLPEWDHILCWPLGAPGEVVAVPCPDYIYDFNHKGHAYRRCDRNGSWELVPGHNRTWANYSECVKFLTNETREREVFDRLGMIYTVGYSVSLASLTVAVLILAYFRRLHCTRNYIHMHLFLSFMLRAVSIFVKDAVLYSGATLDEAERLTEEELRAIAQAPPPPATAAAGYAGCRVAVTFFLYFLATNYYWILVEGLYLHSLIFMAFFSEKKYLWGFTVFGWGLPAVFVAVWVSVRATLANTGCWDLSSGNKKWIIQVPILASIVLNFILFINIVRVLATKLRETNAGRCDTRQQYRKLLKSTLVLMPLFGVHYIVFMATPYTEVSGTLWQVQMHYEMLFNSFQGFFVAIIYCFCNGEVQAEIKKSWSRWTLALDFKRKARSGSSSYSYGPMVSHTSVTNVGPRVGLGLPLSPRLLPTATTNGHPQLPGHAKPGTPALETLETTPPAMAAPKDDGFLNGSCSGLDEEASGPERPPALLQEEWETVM
Procedure, shortened: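 cAMP accumulation was assayed by FlashPlate after 15 min peptide stimulation at 37 °C of Saos-2 cells in Tyrode's buffer containing 100 μM IBMX and 0.1% BSA, with the reaction stopped by ice-cold HCl. Variable-slope logistic fitting gave EC50/pEC50, Hill coefficient and Emax, with single or triplicate points.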

Row | Compound | agonist strength relative to SEQ ID NO: 30 ([1]; cAMP) | Emax ± SEM [pmol/well] ([1]; maximally inducible cAMP) | Emax ± SEM [2] | EC50 ([2]; cAMP, 100 μM IBMX, 37° C. 15 min, suffix of label = salt tested)
1 | CC[C@H](C)[C@H](NC(=O)[C@H](CCC(=O)O)NC(=O)C(C)(C)NC(=O)[C@@H](NC(=O)C1(N)CCCC1)C(C)C)C(=O)N[C@@H](CCC(N)=O)C(=O)N[C@@H](CC(C)C)C(=O)N[C@@H](CCSC)C(=O)N[C@@H](Cc1c[nH]cn1)C(=O)N[C@@H](CCC(N)=O)C(=O)N[C@@H](CCCCNC(=N)N)C(=O)N[C@@H](C)C(=O)N[C@H]1CCCCNC(=O)C[C@@H](C(N)=O)NC(=O)[C@H](CC(C)C)NC(=O)[C@H](Cc2c[nH]c3ccccc23)NC(=O)[C@@H](NC(=O)[C@H](C)NC(=O)[C@H](CCCCNC(=N)N)NC(=O)[C@H](CCC(N)=O)NC(=O)[C@H](Cc2c[nH]cn2)NC(=O)[C@H](CCSC)NC(=O)[C@H](CC(C)C)NC(=O)[C@H](CCC(N)=O)NC(=O)[C@@H](NC(=O)[C@H](CCC(=O)O)NC(=O)C(C)(C)NC(=O)[C@@H](NC(=O)C2(N)CCCC2)C(C)C)[C@@H](C)CC)CCCCNC(=O)C[C@@H](C(N)=O)NC(=O)[C@H](CC(C)C)NC(=O)[C@H](Cc2c[nH]c3ccccc23)NC1=O [SEQ ID NO: 33, (H-Ac5c-Val-Aib-Glu-Ile-Gln-Leu-Met-His-Gln-Har-Ala-Lys( )-Trp-Leu-Asp( )-NH2)2] (I: H-[Ac5c]V[Aib]EIQLMHQ[hArg]AKWLD-NH2 / II: H-[Ac5c]V[Aib]EIQLMHQ[hArg]AKWLD-NH2; amide I:13-II:16, I:16-II:13 (inferred)) | eight-fold stronger agonist | 5.0 ± 0.3 pmol/well | 1.10 ± 0.04 | –
2 | CC[C@H](C)[C@H](NC(=O)[C@H](CCC(=O)O)NC(=O)C(C)(C)NC(=O)[C@@H](NC(=O)C1(N)CCCC1)C(C)C)C(=O)N[C@@H](CCC(N)=O)C(=O)N[C@@H](CC(C)C)C(=O)N[C@@H](CC(C)C)C(=O)N[C@@H](Cc1c[nH]cn1)C(=O)N[C@@H](CCC(N)=O)C(=O)N[C@@H](CCCCNC(=N)N)C(=O)N[C@@H](C)C(=O)N[C@H]1CCCCNC(=O)C[C@@H](C(N)=O)NC(=O)[C@H](CC(N)=O)NC(=O)[C@H](CC(C)C)NC(=O)[C@H](Cc2c[nH]c3ccccc23)NC1=O [SEQ ID NO: 19, H-Ac5c-Val-Aib-Glu-Ile-Gln-Leu-Leu-His-Gln-Har-Ala-Lys( )-Trp-Leu-Asn-Asp( )-NH2] (H-[Ac5c]V[Aib]EIQLLHQ[hArg]AKWLND-NH2; lactam 13-17) | – | – | 1.05 ± 0.04 | 10.2 nM
